Source: ChEMBL document CHEMBL1201862, “PubChem BioAssay data set” (2004)
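Protocol summary: plate cells (96-well), add compound at 5 concentrations, incubate 48 h, interpolate endpoints linearly. GI50 marks 50% less growth.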 Calls of active or inactive are those of the source. No stated cut-off is given here; in the data, active = GI50 up to about 1.1 µM and inactive = higher.

How the values were obtained:
Experiment in all cases: growth of human tumour cells (NCI), 48 h
[1] = tested on: LOX IMVI
[2] = tested on: SK-MEL-28
[3] = tested on: HCT-116
[4] = tested on: 786-0
[5] = tested on: A549
[6] = tested on: SK-MEL-5
[7] = tested on: TK-10
[8] = tested on: MOLT-4
[9] = tested on: UO-31
[10] = tested on: OVCAR-8
[11] = tested on: SK-MEL-2
[12] = tested on: SF-539
[13] = tested on: CCRF-CEM
[14] = tested on: SK-OV-3
[15] = tested on: SW-620
[16] = tested on: RPMI-8226
[17] = tested on: UACC-257
[18] = tested on: OVCAR-4

Measured: GI50

COc1ccc(-c2[nH]c3ccccc3c2CCNS(=O)(=O)c2ccc(C)cc2)cc1
inactive: [1] > 10 µM | [2] > 10 µM | [3] > 8.85 µM | [4] > 10 µM | [5] 6.05 µM | [6] > 5.9 µM | [7] > 7.8 µM | [8] 4.21 µM | [9] 4.92 µM | [10] > 7.91 µM | [11] > 10 µM | [12] > 10 µM | [13] 3.72 µM | [14] > 10 µM | [15] > 10 µM | [16] 4.68 µM | [17] > 8.34 µM

O=C1CCC(=O)c2ccccc2N1
inactive: [1] > 100 µM | [2] > 100 µM | [3] > 100 µM | [4] > 100 µM | [5] > 100 µM | [6] > 100 µM | [18] > 100 µM | [7] > 100 µM | [8] > 100 µM | [9] > 100 µM | [10] > 100 µM | [11] > 100 µM | [12] > 100 µM | [13] > 100 µM | [14] > 100 µM | [15] > 100 µM | [16] > 100 µM | [17] > 100 µM

CCc1ccccc1NC(=O)C(=O)C(C(=O)c1ccc(OC)cc1)c1ccc(OC)cc1 (stereo unspecified)
inactive: [1] > 100 µM | [3] > 100 µM | [4] > 100 µM | [5] > 100 µM | [6] > 100 µM | [18] > 100 µM | [7] > 100 µM | [8] 94.2 µM | [9] > 100 µM | [10] > 100 µM | [11] > 100 µM | [12] > 100 µM | [13] > 100 µM | [14] > 100 µM | [15] > 100 µM | [16] > 100 µM | [17] > 100 µM

Nc1nc2c(ncn2C2OC(CO)C(O)C2O)c(=O)o1 (stereo unspecified)
inactive: [1] > 58.2 µM | [2] > 100 µM | [3] > 82.2 µM | [4] > 100 µM | [5] > 100 µM | [6] > 100 µM | [18] > 100 µM | [7] > 100 µM | [9] > 87.1 µM | [10] > 100 µM | [11] > 100 µM | [12] > 100 µM | [13] > 23.2 µM | [14] > 100 µM | [15] > 33.4 µM | [16] > 52.8 µM | [17] > 100 µM

CCOC(=O)N1CCc2cc(OC)c(OC)c3c2C1CC3=O (stereo unspecified)
inactive: [1] > 100 µM | [3] > 100 µM | [4] > 100 µM | [5] > 100 µM | [6] > 100 µM | [18] > 100 µM | [7] > 100 µM | [8] > 100 µM | [9] > 100 µM | [10] > 100 µM | [11] > 100 µM | [12] > 100 µM | [13] > 100 µM | [14] > 100 µM | [15] > 100 µM | [16] > 100 µM | [17] > 100 µM

O=C(NCCCCCCCCNC(=O)c1cnc2ccccc2n1)c1cnc2ccccc2n1
inactive: [1] > 100 µM | [3] > 100 µM | [4] > 100 µM | [5] > 100 µM | [6] > 100 µM | [18] > 100 µM | [7] > 100 µM | [8] > 100 µM | [9] > 100 µM | [10] > 100 µM | [11] > 100 µM | [12] > 100 µM | [13] > 100 µM | [14] > 100 µM | [15] > 100 µM | [16] > 100 µM | [17] > 100 µM

C=C(CO)CC(O)c1cc(OC)ccc1OC (stereo unspecified)
inactive: [1] > 100 µM | [2] > 100 µM | [4] > 100 µM | [5] > 100 µM | [6] > 100 µM | [18] > 100 µM | [7] > 100 µM | [8] > 100 µM | [9] > 100 µM | [10] > 100 µM | [11] > 100 µM | [12] > 100 µM | [13] > 100 µM | [14] > 100 µM | [15] > 100 µM | [16] > 100 µM | [17] > 100 µM

O=C1c2ccccc2C(=O)N1C/C=N/NS(=O)(=O)c1ccc(F)cc1
inactive: [1] > 100 µM | [3] > 100 µM | [4] > 100 µM | [5] > 100 µM | [6] > 100 µM | [18] > 100 µM | [7] > 100 µM | [8] > 100 µM | [9] > 100 µM | [10] > 100 µM | [11] > 100 µM | [12] > 100 µM | [13] > 100 µM | [15] > 100 µM | [16] > 100 µM | [17] > 100 µM

CCCCCCCCCCCCCC(=O)OCC1OC(n2cc(F)c(=O)[nH]c2=O)C(NC(=O)OCc2ccccc2)C(OC(=O)CCCCCCCCCCCCC)C1O (stereo unspecified)
inactive: [1] > 100 µM | [2] > 100 µM | [3] > 100 µM | [4] > 100 µM | [5] > 100 µM | [6] > 100 µM | [18] > 100 µM | [7] > 100 µM | [8] > 100 µM | [9] > 100 µM | [10] > 100 µM | [11] > 100 µM | [12] > 100 µM | [13] > 100 µM | [14] > 100 µM | [15] > 100 µM | [16] > 100 µM | [17] > 100 µM

C=CC[C@H]1C[C@@]2(C)OC[C@H](C(C)C)N2C1=O
inactive: [1] > 100 µM | [2] > 100 µM | [3] > 100 µM | [4] > 100 µM | [5] > 100 µM | [6] > 100 µM | [18] > 100 µM | [7] > 100 µM | [10] > 100 µM | [11] > 100 µM | [12] > 100 µM | [13] > 100 µM | [15] > 100 µM | [16] > 100 µM | [17] > 100 µM

Cn1c(=O)c2c(ncn2CCCCn2ccnc2[N+](=O)[O-])n(C)c1=O
inactive: [1] > 100 µM | [2] > 100 µM | [3] > 100 µM | [4] > 100 µM | [5] > 100 µM | [6] > 100 µM | [18] > 100 µM | [7] > 100 µM | [8] > 100 µM | [9] > 100 µM | [10] > 100 µM | [11] > 100 µM | [12] > 100 µM | [13] > 100 µM | [15] > 100 µM | [16] > 100 µM

C=CC(=O)NCCSCCCOC1(C(=O)O)CC(O)C(NC(C)=O)C(C(O)C(O)CO)O1 (stereo unspecified)
inactive: [1] > 100 µM | [2] > 100 µM | [3] > 100 µM | [4] > 100 µM | [5] > 100 µM | [18] > 100 µM | [7] > 100 µM | [8] > 100 µM | [9] > 100 µM | [10] > 100 µM | [11] > 100 µM | [12] > 100 µM | [14] > 100 µM | [15] > 100 µM | [16] > 100 µM | [17] > 100 µM
